Measurements taken from patent publication US12544356B2, “Combination of a chromene compound and a second active agent” (EUCLISES PHARMACEUTICALS, INC., priority 2016, dated 2026).

What was measured:
[1] = test system: HT-29 xenograft murine colon carcinoma model; test: HT-29 xenograft tumor growth, Compound A01 with erlotinib (Example 1); assay type: in vivo, CB17SCID male mice; settings: for Tumor Volume: erlotinib 50 mg/kg oral daily
Protocol: HT-29 cells were cultured in medium for one week. Following digestion cells were centrifuged for 3-5 minutes at 800-1500 rpm. Cells were washed with PBS and centrifuged again under the same condition. Cells were then suspended in PBS to a final concentration of […]. 200 μL of the HT-29 cell suspension were subcutaneously injected into the mice left forelimb axillary (2.5×10^6 HT-29 cells per mouse).
(§1) 48 CB17SCID male mice were implanted with 2.5×10^6 HT29 cells. Growth of the tumor was calculated for each animal using a caliper and the equation: V=π×ab^2/6.
(§2) Mouse weight and tumor volume measurements were taken on days 0, 3, 6, 9, 12, 15, 18, 21, and 22 following randomization.

[2] = Body weight in HT-29 xenograft study (Example 1); assay type: in vivo, CB17SCID male mice; settings: erlotinib 50 mg/kg oral daily
Protocol: as §1, §2

[3] = Plasma concentration of Compound A01 and erlotinib (Example 1); assay type: in vivo, CB17SCID male mice; settings: male, CB17SCID, mouse, plasma, oral, 50 mg/kg
Protocol: as §1, §2

[4] = Intratumoral concentration of Compound A01 and erlotinib (Example 1); assay type: in vivo, CB17SCID male mice; settings: male, CB17SCID, mouse, tumor (HT-29 xenograft), oral, 50 mg/kg
Protocol: as §1, §2

PGE2 = test: Intratumoral concentration of PGE2 in HT-29 tumors (Example 1); assay type: in vivo, CB17SCID male mice; settings: HT-29 tumor, day 24; erlotinib 50 mg/kg
Protocol: as §1, §2

[5] = test system: HT-29 xenograft colon carcinoma model; test: HT-29 xenograft tumor volume, Compound A01 vs celecoxib (Example 5); assay type: in vivo, CB17SCID mice; settings: 10 mg/kg oral daily
Protocol: (§3) HT-29 cells were prepared and implanted by standard methods using the same procedure as Example 1.
(§4) 42 CB17SCID mice were implanted with 2.5×10^6 HT-29 cells.
(§5) Mouse weight and tumor volume measurements were taken on days 0, 3, 6, 9, 12, 15, 18, 21, and 22 following randomization. After 22 days dosing, the blood from each animal was collected at 2 hours and 6 hours post dose.

PGE-2 = test: Tumoral PGE-2 in HT-29 tumors (Example 5); assay type: in vivo, CB17SCID mice; settings: HT-29 tumor, day 24; 10 mg/kg
Protocol: as §3, §4, §5

[6] = test system: CT26.WT murine colon carcinomas; test: CT26 tumor volume, Compound A01 vs celecoxib (Example 6); assay type: in vivo, Female Harlan Balb/c mice (BALB/cAnNHsd)
Protocol: (§6) CT26 murine colon carcinoma cells were prepared as in Example 2. Female Harlan Balb/c mice (BALB/cAnNHsd) were inoculated with 5×10^5 CT26 cells suspended in PBS (200 μL) subcutaneously high in the axilla (just under the fore limb). All mice were sorted into study groups based on caliper measurement estimation of tumor burden on Day 8 when the mean tumor burden for all animals was approximately 79 mm^3 (range of group means, 75-83 mm^3).

prostaglandin E2 (PGE2) = test: CT26 tumoral PGE-2 (Example 6); assay type: in vivo, Female Harlan Balb/c mice (BALB/cAnNHsd); settings: 10 mg/kg (Group 8)
Protocol: as §6

**Q.** What does the source list for `C#Cc1cccc(Nc2ncnc3cc(OCCOC)c(OCCOC)cc23)c1` [Erlotinib, erlotinib, reference compound]?
**A.** Tumor Volume ([1]; Day 0): 73.7 mm^3; Tumor Volume ([1]; Day 3): 156.9 mm^3; Tumor Volume ([1]; Day 6): 192.0 mm^3; Tumor Volume ([1]; Day 9): 241.0 mm^3; Tumor Volume ([1]; Day 12): 299.1 mm^3; Tumor Volume ([1]; Day 15): 394.5 mm^3; Tumor Volume ([1]; Day 18): 641.1 mm^3; Tumor Volume ([1]; Day 21): 691.4 mm^3; Tumor Volume ([1]; Day 22): 774.8 mm^3; suppression of tumor growth compared to vehicle ([1]; erlotinib alone (50 mg/kg)): 38%; Body weight ([2]; Day 0): 22.4 g; Body weight ([2]; Day 3): 22.4 g; Body weight ([2]; Day 15): 20.5 g; Body weight ([2]; Day 21): 21.0 g; concentration at 2 h [3]: 3340 ± 1590 ng/mL; concentration at 6 h [3]: 1260 ± 520 ng/mL; concentration at 24 day [4]: < 80000 ng/g; Intratumoral concentration of PGE2 (mean ± SD) (PGE2): 160.6 ± 89.5 µg/g

**Q.** For `Cc1ccc(-c2cc(C(F)(F)F)nn2-c2ccc(S(N)(=O)=O)cc2)cc1` [Celecoxib, celecoxib, reference compound], which “Tumor Volume” value ([5]; Day 0) is on record?
**A.** The value was 67.9 mm^3.

**Q.** What about the “Tumor Volume” value ([5]; Day 3) of the same compound?
**A.** Its value is 81.8 mm^3.

**Q.** What about the “Tumor Volume” value ([5]; Day 6) of the same compound?
**A.** Its value is 143.4 mm^3.

**Q.** What about the “Tumor Volume” value ([5]; Day 9) of the same compound?
**A.** The value was 244.5 mm^3.

**Q.** And the “Tumor Volume” value ([5]; Day 12)?
**A.** The value was 285.5 mm^3.

**Q.** And the “Tumor Volume” value ([5]; Day 15)?
**A.** The value was 380.9 mm^3.

**Q.** What about the “Tumor Volume” value ([5]; Day 18) of the same compound?
**A.** The value was 541.2 mm^3.

**Q.** And the “Tumor Volume” value ([5]; Day 21)?
**A.** The value was 736.1 mm^3.

**Q.** And the “Tumor Volume” value ([5]; Day 22)?
**A.** The value was 803.4 mm^3.

**Q.** And the “Mean PGE-2 (tumoral)” value (PGE-2)?
**A.** The value was 233.3 ± 267.2 ng/g.

**Q.** What about the “CT26 Tumor Volume” value ([6]; Day 8, 10 mg/kg) of the same compound?
**A.** Its value is 79 ± 4 mm^3.

**Q.** What about the “CT26 Tumor Volume” value ([6]; Day 8, 30 mg/kg) of the same compound?
**A.** The value was 76 ± 5 mm^3.

**Q.** And the “CT26 Tumor Volume” value ([6]; Day 10, 10 mg/kg)?
**A.** Its value is 134 ± 11 mm^3.

**Q.** And the “CT26 Tumor Volume” value ([6]; Day 10, 30 mg/kg)?
**A.** The value was 131 ± 17 mm^3.

**Q.** And the “CT26 Tumor Volume” value ([6]; Day 13, 10 mg/kg)?
**A.** The value was 369 ± 42 mm^3.

**Q.** And the “CT26 Tumor Volume” value ([6]; Day 13, 30 mg/kg)?
**A.** Its value is 415 ± 66 mm^3.

**Q.** And the “CT26 Tumor Volume” value ([6]; Day 15, 10 mg/kg)?
**A.** The value was 594 ± 84 mm^3.

**Q.** And the “CT26 Tumor Volume” value ([6]; Day 15, 30 mg/kg)?
**A.** The value was 685 ± 93 mm^3.

**Q.** And the “CT26 Tumor Volume” value ([6]; Day 17, 10 mg/kg)?
**A.** The value was 904 ± 92 mm^3.

**Q.** And the “CT26 Tumor Volume” value ([6]; Day 17, 30 mg/kg)?
**A.** Its value is 1046 ± 144 mm^3.

**Q.** What about the “Mean PGE-2 Concentration (CT26 tumoral)” value (prostaglandin E2 (PGE2)) of the same compound?
**A.** The value was 1140 ng/g.
